Experimental data: patent publication US8883841B2, “Oncogenic ras-specific cytotoxic compound and methods of use thereof” (The Board of Regents of the University of Texas System, priority 2005, dated 2014)
Entries after “also recorded” stand apart in the source; their conditions may differ. Where two headings read alike, the source gives them in different places.

What was measured:
caspase-3 and caspase-8 = assay: Western blot for cleavage/activation of caspase-3 and caspase-8 in H460 cells; assay type: cell-based, human; conditions: 1 μM, 6 to 24 h, listed as Oncrasin-1
Method: Apoptosis induction in H460 cells was also analyzed. H460 cells were treated with 1 μM of Oncrasin-1 for 6 to 24 h. Cells treated with DMSO were used as controls. The cell lysates were then used for a western blot assay to detect the cleavage of caspase-3 and caspase-8. […] After treatment with Oncrasin-1, the expression of some molecules involved in Ras signaling pathways was also evaluated. […] Active Raf-1 can be translocated to mitochondria where it executes antiapoptosis signaling by interaction with Bad or other protein substrates. Raf-1 is also a pivotal regulator of endothelial cell survival during angiogenesis. Ablation of Raf-1 renders cells hypersensitive to apoptosis despite normal regulation of extracellular signal-regulated kinases. Thus, it is possible to induce antitumor activity by suppressing raf-1.
Induction of apoptosis by Oncrasin. Many antitumor therapies act by inducing apoptosis in tumor cells (Fisher, 1994; Thompson, 1995). To determine whether the antitumor activity of Oncrasin-1 is due to the suppression of cell proliferation or to cell killing, T29, T29Kt1, and H460 cells were stained with annexin V/propidium iodide (PI) after treatment with Oncrasin-1 at 30 μM (for T29 or T29Kt1 cells) or 3 μM (for H460 cells). […]

H460 tumors = assay: In vivo antitumor activity, subcutaneous H460 tumors in nude mice; conditions: for suppression of growth of tumor volume in comparison with solvent / mean survival: 100 mg/kg/injection daily i.p.; for suppression of growth of tumor volume in comparison with solvent: Oncrasin-1 10 days, Oncrasin-27 3 days; for mean survival: solvent 24 days; for mean tumor volume vs solvent-treated mice: p<0.05, 5 mice per group
Method: The inventors have investigated the in vivo antitumor activity of Oncrasin compounds, such as Oncrasin-1 and Oncrasin-27, both are available at relatively larger scale. Subcutaneous tumors were established in 4- to 6-week-old female nude mice (Charles River Laboratories Inc., Wilmington, Mass.) by the inoculation of 1.5×10^6 H460 cells into the dorsal flank of each mouse. After the tumors grew to 5 mm in diameter, mice were treated with intraperitoneal injections of Oncrasin-1 (for 10 days) or Oncrasin-27 (for 3 days, because of limited availability of the compound) at a dose of 100 mg/kg/injection daily (the agents were dissolved in 0.5 mL of solvent containing 10% DMSO, 10% Cremophor EL, and 10% ethanol), or they were given intraperitoneal injections of solvent alone. The tumor volumes were calculated using the formula a×b^2×0.5, where a and b represent the larger and smaller diameters, respectively (Gu et al., 2000; Terashi et al., 2005). Mice were killed when the tumors grew to 1.5 cm in diameter. To evaluate the toxicity of treatment, blood samples were collected from the tail vein before treatment and 2 days after the last treatment, and serum alanine transaminase, aspartate transaminase, and creatinine levels were determined as described elsewhere (Gu et al., 2000; Terashi et al., 2005). Hematopoietic toxicity was monitored by counting red blood cells, white blood cells, and platelets (Gu et al., 2002; Terashi et al., 2005). The lung, heart, liver, intestine, spleen, and kidney were harvested after the mice were killed to test the toxic effects of both compounds on these organs. The histopathologic analysis was performed in the histology laboratory of the Department of Veterinary Medicine and Surgery at M. D. Anderson Cancer Center. […] The mean survivals for mice treated with solvent, Oncrasin-1, and Oncrasin-27 were 24, 32, and 34 days, respectively.

wild-type MEF = assay: Icmt-dependent growth inhibition, wild-type MEF; assay type: cell-based, mouse; conditions: up to 100 μM
Description: Oncrasin and Oncrasin Analogs. Chemically, Oncrasin-1 has the same core structure as indole-3-carbinol, a naturally occurring constituent of many plant foods that has been tested for the prevention and treatment of cancer (Brignall, 2001; Kelloff et al., 1996; Chinni et al., 2001). Oncrasin-1 also has structural similarity to sulindac (Taylor et al., 2000; Sun et al., 2002) and lonidamine (Ravagnan et al., 1999; Papaldo et al., 2003), both of which have been evaluated preclinically and clinically for treatment of cancers. […] Oncrasin compounds also bear a indole core structure as the small-molecule inhibitor of isoprenylcysteine carboxylmethyltransferase (Icmt), 2-[5-(3-methylphenyl)-1-octyl-1H-indol-3-yl]acetamide (cysmethynil), which also induces antitumor activity in Ras gene mutant cancer cells (Winter-Vann et al., 2005). […] Both wild-type MEF and Icmt−/− MEF (Bergo et al., 2004) (kindly provided by Dr. S G Young at the University of California, San Francisco) were resistant to Oncrasin-1.

H23 = assay: Cell viability, H23 lung cancer cells; assay type: cell-based, human; conditions: H23, Lung
H2087 = assay: Cell viability, H2087 lung cancer cells; assay type: cell-based, human
MDA-MB-435 = assay: NCI in-vitro testing, MDA-MB-435 (Breast Cancer); conditions: for GI50 / CC50: Homo sapiens; for CC50: MDA-MB-435, read-out: LC50
NCI-H226 = assay: NCI in-vitro testing, NCI-H226 (Non-Small Cell Lung Cancer); conditions: for GI50 / CC50: Homo sapiens; for CC50: NCI-H226, read-out: LC50
786-0 = assay: NCI in-vitro testing, 786-0 (Renal Cancer); conditions: for GI50 / CC50: Homo sapiens; for CC50: 786-0, read-out: LC50
HCT-15 = assay: NCI in-vitro testing, HCT-15 (Colon Cancer); conditions: for GI50 / CC50: Homo sapiens; for CC50: HCT-15, read-out: LC50
T29Kt1 cells = assay: cells; conditions: Homo sapiens, T29Kt1, read-out: IC50 in T29k cells, Table 1
[1] = MDA-MB-435, Log10 Concentration −4.0 Molar
[2] = MDA-MB-435, Log10 Concentration −5.0 Molar
[3] = MDA-MB-435, Log10 Concentration −6.0 Molar
[4] = MDA-MB-435, Log10 Concentration −7.0 Molar
[5] = MDA-MB-435, Log10 Concentration −8.0 Molar
[6] = NCI-H226, Log10 Concentration −4.0 Molar
[7] = NCI-H226, Log10 Concentration −5.0 Molar
[8] = NCI-H226, Log10 Concentration −6.0 Molar
[9] = NCI-H226, Log10 Concentration −7.0 Molar
[10] = NCI-H226, Log10 Concentration −8.0 Molar
[11] = HCT-15, Log10 Concentration −4.0 Molar
[12] = HCT-15, Log10 Concentration −5.0 Molar
[13] = HCT-15, Log10 Concentration −6.0 Molar
[14] = HCT-15, Log10 Concentration −7.0 Molar
[15] = HCT-15, Log10 Concentration −8.0 Molar

O=Cc1cn(Cc2ccc(Cl)cc2)c2ccccc12 [Oncrasin K001, 1H-Indole-3-carboxaldehyde, 1-[(4-chlorophenyl)methyl]-(9CI)]
activation of caspase-3 and caspase-8 (caspase-3 and caspase-8): effectively activated caspase-3 and caspase-8; also recorded: Activation of caspase-3 and caspase-8 was detected; also recorded: effectively induce caspase-3 and caspase-8 activation | suppression of growth of tumor volume in comparison with solvent (H460 tumors): 75.4% | mean survival (H460 tumors): 32 days | mean tumor volume vs solvent-treated mice (H460 tumors): differed significantly | growth inhibition, wild-type MEF (wild-type MEF): resistant | IC50 (−LogM) (H23): >4.5 −LogM | IC50 (−LogM) (H2087; H2087, Lung): >4.5 −LogM | effect on H2087 cells (H2087; mutant N-Ras): minimal effect

O=Cc1cn(Cc2cccc(Cl)c2)c2ccccc12 [Oncrasin K027, 1-(3-chlorobenzyl)-1H-indole-3-carbaldehyde]
GI50 (MDA-MB-435; MDA-MB-435): 1.93 µM | CC50 (MDA-MB-435): > 100 µM | TGI (MDA-MB-435; MDA-MB-435): 5.47E−5 Molar | Percent Growth (MDA-MB-435; [1]): −29% | Percent Growth (MDA-MB-435; [2]): 81% | Percent Growth (MDA-MB-435; [3]): 96% | Percent Growth (MDA-MB-435; [4]): 100% | Percent Growth (MDA-MB-435; [5]): 102% | GI50 (NCI-H226; NCI-H226): < 0.01 µM | CC50 (NCI-H226): 0.501 µM | TGI (NCI-H226; NCI-H226): 4.46E−8 Molar | Percent Growth (NCI-H226; [6]): −65% | Percent Growth (NCI-H226; [7]): −59% | Percent Growth (NCI-H226; [8]): −62% | Percent Growth (NCI-H226; [9]): −22% | Percent Growth (NCI-H226; [10]): 40% | TGI (786-0; 785-0): 2.19E−5 Molar | Percent Growth (786-0; 785-0, Log10 Concentration −4.0 Molar): −52% | Percent Growth (786-0; 785-0, Log10 Concentration −5.0 Molar): 27% | Percent Growth (786-0; 785-0, Log10 Concentration −6.0 Molar): 70% | Percent Growth (786-0; 785-0, Log10 Concentration −7.0 Molar): 88% | Percent Growth (786-0; 785-0, Log10 Concentration −8.0 Molar): 69% | GI50 (786-0; 786-0): 3.4 µM | CC50 (786-0): 84.7 µM | suppression of growth of tumor volume in comparison with solvent (H460 tumors): 76.3% | mean survival (H460 tumors): 34 days | mean tumor volume vs solvent-treated mice (H460 tumors): differed significantly | TGI (HCT-15; HCT-15): 2.58E−6 Molar | Percent Growth (HCT-15; [11]): −31% | Percent Growth (HCT-15; [12]): 21% | Percent Growth (HCT-15; [13]): 69% | Percent Growth (HCT-15; [14]): 90% | Percent Growth (HCT-15; [15]): 99% | GI50 (HCT-15; HCT-15): 0.0252 µM | CC50 (HCT-15): > 100 µM

OCc1cn(Cc2ccc(Cl)cc2)c2ccccc12 [Oncrasin K060, 1H-Indole-3-methanol, 1-[(4-chlorophenyl)methyl]-]
GI50 (MDA-MB-435; MDA-MB-435): 19.3 µM | CC50 (MDA-MB-435): > 100 µM | GI50 (MDA-MB-435; MDA-MB-435, read-out: Log10 GI50 (converted)): 19.1 µM | TGI (MDA-MB-435; MDA-MB-435): 5.47E−5 Molar | Percent Growth (MDA-MB-435; [1]): −29% | Percent Growth (MDA-MB-435; [2]): 81% | Percent Growth (MDA-MB-435; [3]): 96% | Percent Growth (MDA-MB-435; [4]): 100% | Percent Growth (MDA-MB-435; [5]): 102% | GI50 (NCI-H226; NCI-H226): < 0.01 µM | CC50 (NCI-H226): 0.501 µM | GI50 (NCI-H226; NCI-H226, read-out: Log10 GI50 (converted)): < 0.01 µM | TGI (NCI-H226; NCI-H226): 4.48E−8 Molar | Percent Growth (NCI-H226; [6]): −65% | Percent Growth (NCI-H226; [7]): −68% | Percent Growth (NCI-H226; [8]): −82% | Percent Growth (NCI-H226; [9]): −22% | Percent Growth (NCI-H226; [10]): 40% | TGI (786-0; 786-0): 2.19E−5 Molar | Percent Growth (786-0; 786-0, Log10 Concentration −4.0 (Molar)): −52% | Percent Growth (786-0; 786-0, Log10 Concentration −5.0 (Molar)): 27% | Percent Growth (786-0; 786-0, Log10 Concentration −6.0 (Molar)): 76% | Percent Growth (786-0; 786-0, Log10 Concentration −7.0 (Molar)): 88% | Percent Growth (786-0; 786-0, Log10 Concentration −8.0 (Molar)): 99% | GI50 (786-0; 786-0): 34 µM | CC50 (786-0): 94.7 µM | GI50 (786-0; 786-0, read-out: Log10 GI50 (converted)): 3.39 µM | IC50 (T29Kt1 cells): 0.0794 µM | TGI (HCT-15; HCT-15): 2.58E−5 Molar | Percent Growth (HCT-15; [11]): −31% | Percent Growth (HCT-15; [12]): 21% | Percent Growth (HCT-15; [13]): 69% | Percent Growth (HCT-15; [14]): 90% | Percent Growth (HCT-15; [15]): 99% | GI50 (HCT-15; HCT-15): 2.52 µM | CC50 (HCT-15): > 100 µM | GI50 (HCT-15; HCT-15, read-out: Log10 GI50 (converted)): 2.51 µM | IC50 (H23; Homo sapiens, NCI-H23, read-out: IC50 (−LogM) (converted)): 15.8 µM | IC50 (H2087; Homo sapiens, NCI-H2087, H2087, Lung, read-out: IC50 (−LogM) (converted)): 25.1 µM
